Experiment in all cases: ITC
What all share (settings): 135 mM KCl, 15 mM NaCl, 10 mM MgCl2; 50 mM TrisCl pH 8.0, 37 °C

The subject of assay [1] is B. subtilis metE wild type aptamer domain (RNA, riboswitch) GGCAUUUUCUCUUAUCGAGAGUUGGGCGAGGGAUUGGCCUUUUGACCCCAACAGCAACCGACCGUAAUACCAUUGUGAAAUGGGGCGCACUGCUUUUCGCGCCGAGACUGAUGUCUCAUAAGGCACGGUGCUAAUUCCAUCAGAUUGUGUCUGAGAGAUGAGAGAGGCAGUG
The subject of assay [2] is metE aptamer U157A (RNA, riboswitch) GGCAUUUUCUCUUAUCGAGAGUUGGGCGAGGGAUUGGCCUUUUGACCCCAACAGCAACCGACCGUAAUACCAUUGUGAAAUGGGGCGCACUGCUUUUCGCGCCGAGACUGAUGUCUCAUAAGGCACGGAGCUAAUUCCAUCAGAUUGUGUCUGAGAGAUGAGAGAGGCAGUG
For assay [3], the system named is metE aptamer A89G/Δ153 (RNA, riboswitch) GGCAUUUUCUCUUAUCGAGAGUUGGGCGAGGGAUUGGCCUUUUGACCCCAACAGCAACCGGCCGUAAUACCAUUGUGAAAUGGGGCGCACUGCUUUUCGCGCCGAGACUGAUGUCUCAUAAGGCCGGUGCUAAUUCCAUCAGAUUGUGUCUGAGAGAUGAGAGAGGCAGUG
For assay [4], the system named is metE aptamer A153C (RNA, riboswitch) GGCAUUUUCUCUUAUCGAGAGUUGGGCGAGGGAUUGGCCUUUUGACCCCAACAGCAACCGACCGUAAUACCAUUGUGAAAUGGGGCGCACUGCUUUUCGCGCCGAGACUGAUGUCUCAUAAGGCCCGGUGCUAAUUCCAUCAGAUUGUGUCUGAGAGAUGAGAGAGGCAGUG
In assay [5] the test system is metE aptamer A153G (RNA, riboswitch) GGCAUUUUCUCUUAUCGAGAGUUGGGCGAGGGAUUGGCCUUUUGACCCCAACAGCAACCGACCGUAAUACCAUUGUGAAAUGGGGCGCACUGCUUUUCGCGCCGAGACUGAUGUCUCAUAAGGCGCGGUGCUAAUUCCAUCAGAUUGUGUCUGAGAGAUGAGAGAGGCAGUG

For the compound `C[S+](CC[C@H](N)C(=O)O)C[C@H]1O[C@@H](n2cnc3c(N)ncnc32)[C@H](O)[C@@H]1O` (some centres unmarked), the “KD,obs” value in assay [1] was found to be 79 ± 8 nM; in assay [2], 24000 ± 7000 nM; in assay [3], 16000 ± 1000 nM; in assay [4], 150 ± 20 nM; in assay [5], 150 ± 20 nM.
